According to publication PMC9866191, “Novel 9-Benzylaminoacridine Derivatives as Dual Inhibitors of Phosphodiesterase 5 and Topoisomerase II for the Treatment of Colon Cancer” (Molecules, 2023):

Assays:
HCT-116 = assay: MTT cell proliferation assay, HCT-116; details: for % Inhibition at 10 µM: 72 h MTT, means ± SD
CCD-966SK = assay: MTT cell proliferation assay, CCD-966SK; details: CCD966SK skin fibroblast; 10 µM; 72 h MTT
Protocol: In the MTT assay, 96-well culture plates were used. A total of 7 × 10^4 cells per well were seeded, and test materials were added to the cells at various concentrations [47, 48]. Human cancer and non-cancer cell lines were purchased commercially from the American Type Culture Collection (ATCC). After 72 h, the cytotoxicity of the compounds and paclitaxel (as a positive control group) was detected using the MTT method (thiazolyl blue tetrazolium bromide, Sigma-M2128). Absorbance values at 570 and 620 nm (OD = OD570–OD620) were measured using an ELISA reader (Anthos Labtec Instruments, Salzburg, Austria).

PDE5 = system: PDE5; design: method as in PMID 29656464; details: Figure 1; cited from earlier work
PDE5A = molecular target: T1, PDE5A (Homo sapiens, UniProt O76074); assay: Phosphodiesterase 5 HTRF cGMP assay; format: biochemical
T1 construct: purchased BPS Bioscience, San Diego, CA, USA
Protocol: All the synthesized acridine derivatives were tested for their in vitro ability to inhibit PDE5A at a screening dose of 10 µM.
The enzyme activities of phosphodiesterase 5 (PDE5) were measured using an HTRF cGMP assay kit (Cisbio, Codolet, France). […] Afterward, the HTRF reagent (cGMP-d2 and anti-cGMP-cryptate) was added for 1 h at 25 °C, and PDE activity was assayed on an HTRF reader (Tecan Infinite F200 Pro).

| Compound | % Inhibition at 10 µM (HCT-116) | IC50 (HCT-116; read-out: IC50 μM, 72 h MTT, means ± SD, three experiments) | % Inhibition at 10 µM (CCD-966SK) | IC50 (PDE5) | IC50 (PDE5A; means ± S.D. (n = 4), read-out: PDE5 IC50) | inhibition at 10 µM (PDE5A; read-out: PDE5 % Inhibition at 10 μM) | melting point |
| --- | --- | --- | --- | --- | --- | --- | --- |
| N.N.[Cl][Pt][Cl] [cisplatin, reference compound] | 83.00 ± 0.38% | 3.62 ± 0.19 µM | 38.73 ± 5.19% | – | – | – | – |
| c1ccc(CNc2ncnc3sc4c(c23)CCC4)cc1 [C] | – | – | – | 420 nM | – | – | – |
| c1csc(CNc2c3ccccc3nc3ccccc23)c1 [Compound 15, Acridin-9-yl-thiophen-2-ylmethyl-amine] | 39.65 ± 4.72% | – | 11.54 ± 0.04% | – | 6430 ± 1300 nM | 58.4 ± 1.47% | 121 to 123 °C |
| c1ccc(CNc2ncnc3sc4c(c23)CCCCC4)cc1 [B] | – | – | – | 190 nM | – | – | – |
